Test results: patent US20060111305A1, “Metabolites of certain [1,4]diazepino[6,7,1-ij]quinoline derivatives and methods of preparation and use thereof” (Wyeth, priority 2004, published 2006)
Several values for one entry are separate records, joined by “and”; a condition that tells them apart may be missing. Equal values may be shown once.

How the values were obtained:
[1] = Rat blood and plasma radioactivity concentrations after single oral 5 mg/kg [14C]DCDQ; assay type: in vivo, Sprague-Dawley rats; conditions: for Blood concentration of radioactivity, individuals / Plasma concentration of radioactivity, individuals: 5 mg/kg
Method: Dose preparation, animal dosing, and specimen collection were performed at Wyeth Research, Collegeville, Pa. The dose vehicle contained 2% (w/w) Tween 80 and 0.5% methylcellulose in water. […] Male rats weighing from 318 to 345 grams and female rats weighing from 227 to 255 grams at the time of dosing were purchased from Charles River Laboratories, Wilmington, Mass. Non-fasted rats were given a single 5 mg/kg (˜300 μCi/kg) dose of DCDQ at a volume of 2.5 mL/kg via intragastric gavage. Animals were provided Purina rat chow and water ad libitum, and were kept individually in metabolism cages. Male rats were sacrificed at 2, 4, 8 and 24 hour after dose administration. Female rats were sacrificed at 2 and 8 hour after dose administration. At sacrifice, blood samples were collected by cardiac puncture into tubes containing EDTA as the anticoagulant and placing them on ice. Aliquots of 50 μL were removed for combustion and determination of radioactivity content. Plasma was immediately obtained from the remaining blood by centrifugation at 4° C. Brains were excised after perfusion with 50 mL of chilled sterile saline. Urine samples were collected on dry ice at intervals of 0-8 and 8-24 hour post-dosing. Feces were collected at intervals of 0-8 and 8-24 hr post-dosing at room temperature and were homogenized as described previously. The biological specimens and aliquots of the dosing solution at pre- and post-dose were stored at approximately −70° C. until analyzed. Plasma (20 μL) and urine (50 μL) aliquots were analyzed for radioactivity concentrations. Radioactivity determinations of dose, plasma and urine were made with a Tri-Carb Model 3100 TR/LL liquid scintillation counter (LSC) (Perkin Elmer) using 10 mL of Ultima Gold as the scintillation fluid. […] Blood aliquots (50 μL), brain homogenates (0.1 gram) and fecal homogenates (0.2 gram) were placed on Combusto-cones with Combusto-pads and combusted. A model 307 Tri-Carb Sample Oxidizer, equipped with an Oximate-80 Robotic Automatic Sampler (Perkin Elmer), was used for combustion. The liberated ^14CO2 was trapped with Carbo-Sorb E carbon dioxide absorber, mixed with PermaFluor® E+ liquid scintillation cocktail, and counted in a Tri-Carb Model 3100 TR/LL liquid scintillation counter (Perkin Elmer). The oxidation efficiency of the oxidizer was 98.2%.

[2] = Incubation of [14C]DCDQ in rat fecal homogenate (stability); assay type: in vitro ADME; conditions: 37° C. for 24 hours
Method: Fecal elimination accounted for 21.1±2.1% of the dosed radioactivity recovered in the first 24 hours post-dosing for male rats. Extraction efficiency for the 8-24 hour fecal samples was 64.3%, while an average of 89.5% of the radioactivity was extracted from incubations of [^14C]DCDQ in control fecal homogenate. […] Metabolite profiles were not obtained from the 0-8 hour fecal samples because of low radioactivity (less than 0.1% of dosed radioactivity).

[3] = dog, enteric-coated capsule, mass balance study; cited from earlier work

## c1cc2c3c(c1)[C@H]1CCC[C@H]1CN3CCNC2 [[^14C]DCDQ]
[1]; female rats, 2 hr
  Blood concentration of radioactivity, Mean ± SD: 697 ± 219 ng equivalents/mL
  Plasma concentration of radioactivity, Mean ± SD: 658 ± 189 ng equivalents/mL
  Blood concentration of radioactivity, individuals: 661 ng equivalents/mL and 932 ng equivalents/mL and 499 ng equivalents/mL
  Plasma concentration of radioactivity, individuals: 635 ng equivalents/mL and 857 ng equivalents/mL and 481 ng equivalents/mL
[1]; female rats, 8 hr
  Blood concentration of radioactivity, Mean ± SD: 307 ± 68.4 ng equivalents/mL
  Plasma concentration of radioactivity, Mean ± SD: 338 ± 60.7 ng equivalents/mL
  Blood concentration of radioactivity, individuals: 413 ng equivalents/mL and 292 ng equivalents/mL and 406 ng equivalents/mL
  Plasma concentration of radioactivity, individuals: 362 ng equivalents/mL and 269 ng equivalents/mL and 383 ng equivalents/mL
[1]; male rats, 2 hr
  Blood concentration of radioactivity, Mean ± SD: 706 ± 158 ng equivalents/mL
  Plasma concentration of radioactivity, Mean ± SD: 632 ± 144 ng equivalents/mL
  Blood concentration of radioactivity, individuals: 606 ng equivalents/mL and 624 ng equivalents/mL and 888 ng equivalents/mL
  Plasma concentration of radioactivity, individuals: 567 ng equivalents/mL and 531 ng equivalents/mL and 797 ng equivalents/mL
[1]; male rats, 4 hr
  Blood concentration of radioactivity, Mean ± SD: 704 ± 18.7 ng equivalents/mL
  Plasma concentration of radioactivity, Mean ± SD: 659 ± 16.5 ng equivalents/mL
  Blood concentration of radioactivity, individuals: 698 ng equivalents/mL and 725 ng equivalents/mL and 689 ng equivalents/mL
  Plasma concentration of radioactivity, individuals: 678 ng equivalents/mL and 652 ng equivalents/mL and 647 ng equivalents/mL
[1]; male rats, 8 hr
  Blood concentration of radioactivity, Mean ± SD: 525 ± 45.3 ng equivalents/mL
  Plasma concentration of radioactivity, Mean ± SD: 465 ± 43.1 ng equivalents/mL
  Blood concentration of radioactivity, individuals: 538 ng equivalents/mL and 475 ng equivalents/mL and 562 ng equivalents/mL
  Plasma concentration of radioactivity, individuals: 487 ng equivalents/mL and 415 ng equivalents/mL and 492 ng equivalents/mL
[1]; male rats, 24 hr
  Blood concentration of radioactivity, Mean ± SD: 68.0 ± 10.0 ng equivalents/mL
  Plasma concentration of radioactivity, Mean ± SD: 46.9 ± 8.30 ng equivalents/mL
  Blood concentration of radioactivity, individuals: 66.5 ng equivalents/mL and 58.9 ng equivalents/mL and 78.7 ng equivalents/mL
  Plasma concentration of radioactivity, individuals: 50.5 ng equivalents/mL and 37.4 ng equivalents/mL and 52.8 ng equivalents/mL
[2]
  degradation in fecal homogenate: no detectable degradation
[3]
  dose recovered in urine: 32.7%
